Experimental data from patent US6217879A, “Enzyme-decomposed materials of laver and uses thereof” (Shirako Co., Ltd., priority 1998, dated 2001).

Test: Anti-oxidant action, linoleic acid peroxide number by rhodan iron method
Settings: 3 mg α-tocopherol, 50° C.
Procedure: The respective fractions were measured for anti-oxidant activity in the following manner.
This solution was sealed in a test tube equipped with a screw and left in a thermostatic chamber at 50° C., and the peroxide number of the linoleic acid was measured every 48 hours by the rhodan iron method. […] The number of days elapsed until the absorbance at 500 nm reached 0.35 was assumed to be induction period (days).

## Cc1c(C)c2c(c(C)c1O)CCC(C)(CCCC(C)CCCC(C)CCCC(C)C)O2 (stereo not drawn) [α-tocopherol]
  Induction period (days until absorbance at 500 nm reached 0.35): 8 days
